Measured values taken from the NIST ThermoML archive (doi:10.1007/s10765-007-0169-z).

Key:
[1] = xn = mol fraction of the nth substance listed; settings: Drop volume
[2] = for surface tension liquid-gas: Drop volume; for mass density: 101.33 kPa, Liquid, Pycnometric method

CC(C)(C)Cl [2-chloro-2-methylpropane] + C1CCOCC1
[1]
Settings | surface tension liquid-gas [mN/m]
298.15 K, x2 = 0.0332 | 19.18
298.15 K, x2 = 0.0955 | 19.68
298.15 K, x2 = 0.2242 | 20.68
298.15 K, x2 = 0.3219 | 21.37
298.15 K, x2 = 0.4336 | 22.17
298.15 K, x2 = 0.5374 | 22.97
298.15 K, x2 = 0.6269 | 23.69
298.15 K, x2 = 0.7173 | 24.48
298.15 K, x2 = 0.8149 | 25.41
298.15 K, x2 = 0.9089 | 26.36
298.15 K, x2 = 0.9418 | 26.71
313.15 K, x2 = 0.0734 | 17.35
313.15 K, x2 = 0.1038 | 17.5
313.15 K, x2 = 0.2093 | 18.14
313.15 K, x2 = 0.3169 | 18.9
313.15 K, x2 = 0.4363 | 19.8
313.15 K, x2 = 0.5116 | 20.41
313.15 K, x2 = 0.612 | 21.24
313.15 K, x2 = 0.7058 | 22.05
313.15 K, x2 = 0.8154 | 23.08
313.15 K, x2 = 0.9006 | 23.98
313.15 K, x2 = 0.9529 | 24.66

CCC(C)Cl (centres undefined) [2-chlorobutane] + C1CCOCC1
[1]
Settings | surface tension liquid-gas [mN/m]
298.15 K, x2 = 0.04 | 22.05
298.15 K, x2 = 0.1057 | 22.38
298.15 K, x2 = 0.2133 | 22.88
298.15 K, x2 = 0.3195 | 23.39
298.15 K, x2 = 0.4166 | 23.88
298.15 K, x2 = 0.5188 | 24.44
298.15 K, x2 = 0.6151 | 24.99
298.15 K, x2 = 0.7111 | 25.56
298.15 K, x2 = 0.8098 | 26.15
298.15 K, x2 = 0.9438 | 26.95
298.15 K, x2 = 0.9845 | 27.2
313.15 K, x2 = 0.0355 | 19.56
313.15 K, x2 = 0.1006 | 20.01
313.15 K, x2 = 0.2177 | 20.83
313.15 K, x2 = 0.3192 | 21.5
313.15 K, x2 = 0.4243 | 22.14
313.15 K, x2 = 0.5166 | 22.66
313.15 K, x2 = 0.5931 | 23.07
313.15 K, x2 = 0.7193 | 23.76
313.15 K, x2 = 0.8156 | 24.31
313.15 K, x2 = 0.9057 | 24.85
313.15 K, x2 = 0.991 | 25.34

CC(C)CCl [1-chloro-2-methylpropane]
[2]
Settings | mass density [kg/m3] | surface tension liquid-gas [mN/m]
298.15 K | 871.13 | 21.8
313.15 K | – | 19.18

CCCCCl [1-chlorobutane] + C1CCOC1
[1]
Settings | surface tension liquid-gas [mN/m]
298.15 K, x2 = 0.0526 | 23.45
298.15 K, x2 = 0.1121 | 23.62
298.15 K, x2 = 0.2436 | 23.98
298.15 K, x2 = 0.3549 | 24.29
298.15 K, x2 = 0.4671 | 24.65
298.15 K, x2 = 0.5624 | 25
298.15 K, x2 = 0.6678 | 25.41
298.15 K, x2 = 0.7575 | 25.79
298.15 K, x2 = 0.84 | 26.16
298.15 K, x2 = 0.9224 | 26.58
298.15 K, x2 = 0.9739 | 26.87
313.15 K, x2 = 0.0654 | 21.78
313.15 K, x2 = 0.1272 | 21.95
313.15 K, x2 = 0.25 | 22.28
313.15 K, x2 = 0.3654 | 22.59
313.15 K, x2 = 0.4658 | 22.89
313.15 K, x2 = 0.5586 | 23.2
313.15 K, x2 = 0.6569 | 23.56
313.15 K, x2 = 0.7489 | 23.92
313.15 K, x2 = 0.8401 | 24.3
313.15 K, x2 = 0.9272 | 24.69
313.15 K, x2 = 0.9663 | 24.88

C1CCOC1 [tetrahydrofuran]
[2]
Settings | mass density [kg/m3] | surface tension liquid-gas [mN/m]
298.15 K | 881.95 | 27.04
313.15 K | – | 25.05

C1CCOCC1 [tetrahydropyran]
[2]
Settings | mass density [kg/m3] | surface tension liquid-gas [mN/m]
298.15 K | 878.81 | 27.29
313.15 K | – | 25.39

CCCCCl [1-chlorobutane] + C1CCOCC1
[1]
Settings | surface tension liquid-gas [mN/m]
298.15 K, x2 = 0.0421 | 23.43
298.15 K, x2 = 0.1082 | 23.65
298.15 K, x2 = 0.2121 | 24.02
298.15 K, x2 = 0.3174 | 24.41
298.15 K, x2 = 0.4245 | 24.82
298.15 K, x2 = 0.5222 | 25.21
298.15 K, x2 = 0.6243 | 25.63
298.15 K, x2 = 0.7209 | 26.04
298.15 K, x2 = 0.8105 | 26.43
298.15 K, x2 = 0.9103 | 26.88
298.15 K, x2 = 0.9655 | 27.13
313.15 K, x2 = 0.0319 | 21.69
313.15 K, x2 = 0.1092 | 21.95
313.15 K, x2 = 0.208 | 22.29
313.15 K, x2 = 0.3137 | 22.66
313.15 K, x2 = 0.4209 | 23.04
313.15 K, x2 = 0.5149 | 23.39
313.15 K, x2 = 0.6199 | 23.8
313.15 K, x2 = 0.717 | 24.19
313.15 K, x2 = 0.8126 | 24.59
313.15 K, x2 = 0.9067 | 24.99
313.15 K, x2 = 0.965 | 25.24

CCC(C)Cl (centres undefined) [2-chlorobutane]
[2]
Settings | mass density [kg/m3] | surface tension liquid-gas [mN/m]
298.15 K | 867.37 | 21.93
313.15 K | – | 19.33

CC(C)(C)Cl [2-chloro-2-methylpropane]
[2]
Settings | mass density [kg/m3] | surface tension liquid-gas [mN/m]
298.15 K | 836.45 | 18.9
313.15 K | – | 16.98

CC(C)(C)Cl [2-chloro-2-methylpropane] + C1CCOC1
[1]
Settings | surface tension liquid-gas [mN/m]
298.15 K, x2 = 0.0664 | 19.32
298.15 K, x2 = 0.1332 | 19.74
298.15 K, x2 = 0.2532 | 20.51
298.15 K, x2 = 0.3652 | 21.26
298.15 K, x2 = 0.4851 | 22.11
298.15 K, x2 = 0.5768 | 22.81
298.15 K, x2 = 0.6804 | 23.66
298.15 K, x2 = 0.7747 | 24.51
298.15 K, x2 = 0.8446 | 25.2
298.15 K, x2 = 0.9372 | 26.23
298.15 K, x2 = 0.9656 | 26.58
313.15 K, x2 = 0.0427 | 16.98
313.15 K, x2 = 0.1236 | 17.22
313.15 K, x2 = 0.1853 | 17.54
313.15 K, x2 = 0.2856 | 18.22
313.15 K, x2 = 0.3852 | 18.94
313.15 K, x2 = 0.5033 | 19.9
313.15 K, x2 = 0.6055 | 20.75
313.15 K, x2 = 0.6963 | 21.55
313.15 K, x2 = 0.794 | 22.48
313.15 K, x2 = 0.89 | 23.53
313.15 K, x2 = 0.9446 | 24.25

CCCCCl [1-chlorobutane]
[2]
Settings | mass density [kg/m3] | surface tension liquid-gas [mN/m]
298.15 K | 880.69 | 23.29
313.15 K | – | 21.58

CC(C)CCl [1-chloro-2-methylpropane] + C1CCOC1
[1]
Settings | surface tension liquid-gas [mN/m]
298.15 K, x2 = 0.0652 | 22.25
298.15 K, x2 = 0.1201 | 22.54
298.15 K, x2 = 0.2392 | 23.06
298.15 K, x2 = 0.3613 | 23.53
298.15 K, x2 = 0.4622 | 23.94
298.15 K, x2 = 0.5682 | 24.44
298.15 K, x2 = 0.6614 | 24.9
298.15 K, x2 = 0.7586 | 25.42
298.15 K, x2 = 0.8408 | 25.89
298.15 K, x2 = 0.9257 | 26.45
298.15 K, x2 = 0.9662 | 26.75
313.15 K, x2 = 0.0619 | 19.77
313.15 K, x2 = 0.1268 | 20.25
313.15 K, x2 = 0.2531 | 21
313.15 K, x2 = 0.359 | 21.53
313.15 K, x2 = 0.4722 | 22.06
313.15 K, x2 = 0.5669 | 22.51
313.15 K, x2 = 0.659 | 22.97
313.15 K, x2 = 0.7539 | 23.45
313.15 K, x2 = 0.8338 | 23.88
313.15 K, x2 = 0.9198 | 24.42
313.15 K, x2 = 0.9751 | 24.83

CCC(C)Cl (centres undefined) [2-chlorobutane] + C1CCOC1
[1]
Settings | surface tension liquid-gas [mN/m]
298.15 K, x2 = 0.0427 | 21.96
298.15 K, x2 = 0.1259 | 22.24
298.15 K, x2 = 0.2478 | 22.71
298.15 K, x2 = 0.3589 | 23.19
298.15 K, x2 = 0.4628 | 23.68
298.15 K, x2 = 0.5654 | 24.19
298.15 K, x2 = 0.6678 | 24.74
298.15 K, x2 = 0.7513 | 25.22
298.15 K, x2 = 0.84 | 25.77
298.15 K, x2 = 0.9208 | 26.35
298.15 K, x2 = 0.9701 | 26.76
313.15 K, x2 = 0.0581 | 19.7
313.15 K, x2 = 0.124 | 20.12
313.15 K, x2 = 0.2442 | 20.84
313.15 K, x2 = 0.3595 | 21.47
313.15 K, x2 = 0.4761 | 22.05
313.15 K, x2 = 0.573 | 22.53
313.15 K, x2 = 0.6654 | 23
313.15 K, x2 = 0.7524 | 23.45
313.15 K, x2 = 0.836 | 23.94
313.15 K, x2 = 0.9209 | 24.49
313.15 K, x2 = 0.9663 | 24.81

CC(C)CCl [1-chloro-2-methylpropane] + C1CCOCC1
[1]
Settings | surface tension liquid-gas [mN/m]
298.15 K, x2 = 0.0483 | 22.18
298.15 K, x2 = 0.1067 | 22.55
298.15 K, x2 = 0.2075 | 23.09
298.15 K, x2 = 0.32 | 23.63
298.15 K, x2 = 0.4148 | 24.07
298.15 K, x2 = 0.519 | 24.58
298.15 K, x2 = 0.6219 | 25.11
298.15 K, x2 = 0.7194 | 25.65
298.15 K, x2 = 0.8079 | 26.15
298.15 K, x2 = 0.9077 | 26.72
298.15 K, x2 = 0.9602 | 27.04
313.15 K, x2 = 0.0377 | 19.55
313.15 K, x2 = 0.1032 | 20.11
313.15 K, x2 = 0.2167 | 20.92
313.15 K, x2 = 0.3226 | 21.57
313.15 K, x2 = 0.4213 | 22.13
313.15 K, x2 = 0.5302 | 22.74
313.15 K, x2 = 0.6241 | 23.27
313.15 K, x2 = 0.7134 | 23.78
313.15 K, x2 = 0.8148 | 24.37
313.15 K, x2 = 0.9051 | 24.89
313.15 K, x2 = 0.966 | 25.22
